Results: PMC11414412, “Design and synthesis new indole-based aromatase/iNOS inhibitors with apoptotic antiproliferative activity” (Frontiers in Chemistry, 2024)

Legend:
MCF-10A cells = assay: Cell viability assay (MTT) on normal mammary epithelial cells; assay type: cell-based, human; details: MCF-10A normal cells, 50 µM, 4 days incubation
Method: This test investigates the effects of the new compounds 3–16 on normal cell lines to determine their safety. The normal human mammary gland epithelial (MCF-10 A) cell line was used to test the viability of the tested compounds. After 4 days of incubation on MCF-10 A cells within 50 µM of each investigated compound, cell viability was determined using the MTT assay ([Gomaa et al., 2020]; [Marzouk et al., 2020]).
The normal human mammary gland epithelial (MCF-10A) cell line was used to test the viability of the tested compounds. After 4 days of incubation on MCF-10A cells within 50 µM of each investigated compound, cell viability was determined using the MTT assay ([Gomaa et al., 2020]; [Marzouk et al., 2020]). Refer to Supplementary Appendix SA1 (supp. File) for more details.
4.2. Biological evaluation
4.2.1 Cell Viability assay (MTT assay)
MTT assay was performed to investigate the effect of the synthesized compounds on mammary epithelial cells (MCF-10A). The cells were propagated in medium consisting of Ham's F-12 medium/ Dulbecco's modified Eagle's medium (DMEM) (1:1) supplemented with 10% foetal calf serum, 2 mM glutamine, insulin (10 μg/mL), hydrocortisone (500 ng/mL) and epidermal growth factor (20 ng/mL). Trypsin ethylenediamine tetra acetic acid (EDTA) was used to passage the cells after every 2-3 days. 96-well flat-bottomed cell culture plates were used to seed the cells at a density of 10^4 cells mL-1. The medium was aspirated from all the wells of culture plates after 24 h followed by the addition of synthesized compounds (in 200 μL medium to yield a final concentration of 0.1% (v/v) dimethyl sulfoxide) into individual wells of the plates. Four wells were designated to a single compound. The plates were allowed to incubate at 37°C for 96 h. Afterwards, the medium was aspirated and 3-[4,5-dimethylthiazol-2-yl]-2,5-diphenyltetrazolium bromide (MTT) (0.4 mg/mL) in medium was added to each well and subsequently incubated for 3 h. The medium was aspirated and 150 μL dimethyl sulfoxide (DMSO) was added to each well. The plates were vortexed followed by the measurement of absorbance at 540 nm on a microplate reader. The results were presented as inhibition (%) of proliferation in contrast to controls comprising 0.1%

Structure (SMILES) | melting point [°C] | Cell viability % (MCF-10A cells)
CCc1c2cc(Cl)ccc2n2c(C)c(C(=O)OCc3ccccc3)[nH]c(=O)c12 [Compound 5, benzyl 8-chloro-10-ethyl-4-methyl-1-oxo-1,2-dihydropyrazino [1,2-a]indole-3-carboxylate] | 180 to 182 | 
CCc1c2cc(Cl)ccc2n2cc(Cc3ccccc3)n(C)c(=O)c12 [Compound 12, 3-Benzyl-8-chloro-10-ethyl-2-methylpyrazino[1,2-a]indol-1(2H)-one] |  | no effect
CCc1c2cc(Cl)ccc2n2cc(-c3ccccc3)[nH]c(=O)c12 [Compound 16, 8-Chloro-10-ethyl-3-phenylpyrazino [1,2-a]indol-1(2H)-one] |  | no effect
